The structures appear in SMILES notation.

The test system of assay [1] is Human gastric cancer cells (NCI-N87). Briefly: Antitumor effect in subcutaneous transplantation model of human gastric cancer cell line NCI-N87. Format: in vivo, nude mice. To be noted: for anti-tumor effect versus comparative compounds 6 and 7 at the same dose (RTV on day 15): 2 mg/kg/day oral for all compounds, Student-t test; for inhibition of tumor growth (relative tumor volume, FIG. 1): 2 mg/kg/day orally once per day for 14 days, nude mice, NCI-N87; for anti-tumor effect versus comparative compounds 6 and 7 at increased dose (RTV): Examples at 2 mg/kg/day oral, comparative compounds 6 and 7 at 10 mg/kg/day. The protocol:
Human gastric cancer cells (NCI-N87) (obtained from ATCC) were subcutaneously transplanted in nude mice, and at the time when the tumor volume of the nude mice in which the cancer cells had been survived became approximately 140 to 210 mm^3, stratified randomization was performed so that the average tumor volume of each group (6 animals were assigned to one group (grouping: on day 0)) became uniform. The compounds 1, 6, and 9 of the present invention and the comparative compounds 6 (the compound of Example 21 in WO 2010/106290) and 7 (the compound of Example 1 in WO 2010/106290) were orally administered daily once per day from day 1 for 14 days. Note that the comparative compounds were synthesized according to the method described in WO 2010/106290 (Table 22).
The doses of 2 mg/kg/day and 10 mg/kg/day were used for the comparative compounds 6 and 7, and the dose of 2 mg/kg/day was used for the compounds of Examples of 1, 6, and 9 of the present invention.
In order to compare the transition over time of the tumor growth in the administration of each test compound, the relative tumor volume (RTV) was calculated according to the following equation when the tumor volume on the grouping day was defined as 1 for the growth rate of tumor, and the transition of the average value of the RTV of each individual was shown in FIG. 1. RTV=(Tumor volume on tumor volume measurement day)/(Tumor volume when grouped) (Mathematical Formula 1)

For another assay, the system named is SK-BR-3 cells. Briefly: Measurement of cell growth inhibition (crystal violet staining). To be noted: Homo sapiens, 72 hours culture with test substance. The assay is classed as cell-based. Here is the method:
Cell growth was measured by a crystal violet staining method. […] The cells were cultured in a 5% CO2 incubator at 37° C. for 24 hours, and then test substances were added to the plate, followed by culturing for further 72 hours. […] The plate was left to stand at room temperature for 20 minutes for staining the cells. The plate was washed with water and dried, and 100 μL of a mixed solution of 0.05 M NaH2PO4 and ethanol (mixture in equal amounts) was added to each well. The absorbance at 540 nm was measured with a microplate reader (MTP-450, Corona Electric Co., Ltd.) as an index of the number of cells in each well. The inhibition rate (%) of cell growth by a compound of the present invention was determined by the following equation using the absorbance of a drug-untreated group (control) as a control. […] Inhibition rate (%)=(C−T)/C×100 T: absorbance in a well to which a test substance was added C: absorbance in a well to which no test substance was added

For assay [2], the target named is human HSP90 alpha protein (N-terminal, amino acids 2-236) (Homo sapiens (Human), UniProt P07900). The assay is described as follows: Measurement of HSP90-binding activity (AlphaScreen competitive assay, biotin-labeled geldanamycin). To be noted: inhibition of biotin-labeled geldanamycin binding to purified HSP90; read-out: HSP-binding activity IC50. The protocol: First, a solution of purified HSP90 was prepared as follows. […] The pET-HSP90N was introduced into Escherichia coli cells (BL21 (DE3), Stratagene Inc.), and then the Escherichia coli cells were cultured in the presence of 0.5 mM isopropyl-beta-D-thiogalactopyranoside (Sigma-Aldrich Corp.) at 37° C. for 4 hours. The Escherichia coli cells were collected, suspended in a lysis buffer (50 mM Tris-HCl (pH 7.5), 200 mM NaCl), and sonicated. The sonicated cell solution was centrifuged (40,000×g, 20 minutes) to obtain supernatant as a crude extract. The crude extract was fractionated by Ni Sepharose High Performance (GE Healthcare Japan Corporation) chromatography and HiLoad 26/60 Superdex 75 pg (GE Healthcare Japan Corporation), and the fraction in which HSP90 protein was concentrated was prepared so as to be a 50 mM Tris-HCl (pH 7.5)/20% glycerol solution as a purified HSP90 solution. The purified HSP90 solution was divided and stored at −80° C. until use.
The HSP90-binding activity was measured by an AlphaScreen competitive assay system. […] After reaction at room temperature for 2 hours, biotin-labeled geldanamycin was added to each reaction solution in an amount of 40 nM, followed by reaction for further 1 hour. […] After reaction in a dark place at room temperature for 1 hour, the fluorescence intensity in each well was measured with a multilabel plate reader, EnVision (Perkin Elmer, Inc.). The inhibition rate (%) of biotin-labeled geldanamycin binding by a compound of the present invention was determined by the following equation using the fluorescence signal of a test substance-free group (control) as a control. […] Inhibition rate (%)=(C−T)/C×100 T: signal in a well to which a test substance was added C: signal in a well to which no test substance was added
(Bead proximity is the source of the signal in Alpha formats.)

As a reminder, the IC50 is the midpoint of a concentration-inhibition curve. With `CC(C)c1nn(-c2ccc(C(N)=O)c(NC(C)(C)C)c2)c2cccc(-n3cnc(-c4cccnc4)c3)c12` [Example 1, 2-(Tert-butylamino)-4-(3-isopropyl-4-(4-(pyridin-3-yl)-1H-imidazol-1-yl)-1H-indazol-1-yl)benzamide], in assay [1], the “anti-tumor effect versus comparative compounds 6 and 7 at the same dose (RTV on day 15)” value is “significantly stronger anti-tumor effects than the comparative compounds 6 and 7”; the “inhibition of tumor growth (relative tumor volume, FIG. 1)” value is on record as “inhibited the tumor growth within one week from the start of the administration”; the “anti-tumor effect versus comparative compounds 6 and 7 at increased dose (RTV)” value is “significantly stronger anti-tumor effect than any of the comparative compounds 6 and 7”. In the assay on SK-BR-3 cells, this molecule displayed an IC50 of 20 nM. Besides, the IC50 in assay [2] was found to be 170 nM.

On to `Cc1cn(-c2ccc(C(N)=O)c(NC(C)(C)C)c2)c2cccc(-n3cnc(-c4cnn(C)c4)c3)c12` [Example 46, 2-(Tert-butylamino)-4-{3-methyl-4-(4-(1-methyl-1H-pyrazolo-4-yl)-1H-imidazolo-1-yl)-1H-indol-1-yl}benzamide], for which the IC50 was found to be 50 nM in the assay on SK-BR-3 cells and 190 nM in assay [2].

Turning to `Cc1cc(C(N)=O)ccc1-n1nc(C(F)(F)F)c2c(-n3cnc(-c4cccnc4)c3)cccc21` [Example 17, 3-Methyl-4-(4-(4-(pyridin-3-yl)-1H-imidazol-1-yl)-3-(trifluoromethyl)-1H-indazol-1-yl)benzamide], the IC50 in the assay with SK-BR-3 cells turned out to be 300 nM; in assay [2], 490 nM.

Turning to `CC(C)c1nn(-c2ccc(C(N)=O)c(NC(C)(C)C)c2)c2cccc(-n3cnc(-c4cnn(C)c4)c3)c12` [Example 9, 2-(Tert-butylamino)-4-(3-isopropyl-4-(4-(1-methyl-1H-pyrazol-4-yl)-1H-imidazol-1-yl)-1H-indazol-1-yl)benzamide], in assay [1], the “anti-tumor effect versus comparative compounds 6 and 7 at the same dose (RTV on day 15)” value was “significantly stronger anti-tumor effects than the comparative compounds 6 and 7”; the “inhibition of tumor growth (relative tumor volume, FIG. 1)” value is on record as “inhibited the tumor growth within one week from the start of the administration”; the “anti-tumor effect versus comparative compounds 6 and 7 at increased dose (RTV)” value is “significantly stronger anti-tumor effect than any of the comparative compounds 6 and 7”. The IC50 in the assay with SK-BR-3 cells came to 10 nM. For the same molecule, in assay [2], the half-maximal inhibitory concentration (IC50) came out at 260 nM.

Regarding `Cn1cc(-c2cn(-c3cccc4c3c(C(F)(F)F)nn4-c3ccc(C(N)=O)cc3NC3CCC3)cn2)cn1` [Example 21, 3-(Cyclobutylamino)-4-(4-(4-(1-methyl-1H-pyrazol-4-yl)-1H-imidazol-1-yl)-3-(trifluoromethyl)-1H-indazol-1-yl)benzamide], the half-maximal inhibitory concentration (IC50) with SK-BR-3 cells is 70 nM; in assay [2], 150 nM.

For the molecule `CCc1cc(C(N)=O)ccc1-n1nc(C(F)(F)F)c2c(-n3cnc(-c4cnn(C)c4)c3)cccc21` [Example 18, 3-Ethyl-4-(4-(4-(1-methyl-1H-pyrazol-4-yl)-1H-imidazol-1-yl)-3-(trifluoromethyl)-1H-indazol-1-yl)benzamide], the values for the IC50 (in the assay on SK-BR-3 cells; in assay [2]) were 50 nM and 90 nM, respectively.

As to `CC(C)c1nn(-c2ccc(C(N)=O)cc2NC2CCC2)c2cccc(-n3cnc(-c4cnn(C)c4)c3)c12` [Example 13, 3-(Cyclobutylamino)-4-(3-Isopropyl-4-(4-(1-methyl-1H-pyrazol-4-yl)-1H-imidazol-1-yl)-1H-indazol-1-yl)benzamide], the IC50 in the assay on SK-BR-3 cells stood at 60 nM; in assay [2], 200 nM.

Take `CCc1cc(C(N)=O)ccc1-n1nc(C(C)C)c2c(-n3cnc(-c4cnn(C)c4)c3)cccc21` [Example 6, 3-Ethyl-4-(3-isopropyl-4-(4-(1-methyl-1H-pyrazol-4-yl)-1H-imidazol-1-yl)-1H-indazol-1-yl)benzamide]: in assay [1], the “anti-tumor effect versus comparative compounds 6 and 7 at the same dose (RTV on day 15)” value was “significantly stronger anti-tumor effects than the comparative compounds 6 and 7”; the “inhibition of tumor growth (relative tumor volume, FIG. 1)” value is “inhibited the tumor growth within one week from the start of the administration”; the “anti-tumor effect versus comparative compounds 6 and 7 at increased dose (RTV)” value was “significantly stronger anti-tumor effect than any of the comparative compounds 6 and 7”. In addition, in the assay on SK-BR-3 cells, inhibition was half-maximal at 30 nM (IC50). Further, in assay [2], the 50% inhibitory concentration (IC50) was 100 nM.

For the molecule `NC(=O)c1ccc(-n2nc(C(F)(F)F)c3c(-n4cnc(-c5cccnc5)c4)cccc32)c(NC2CCC2)c1` [Example 23, 3-(Cyclobutylamino)-4-(4-(4-(pyridin-3-yl)-1H-imidazol-1-yl)-3-(trifluoromethyl)-1H-indazol-1-yl)benzamide], the IC50 in the assay with SK-BR-3 cells came to 170 nM; in assay [2] it was 280 nM.

The values are drawn from patent US9120780B2, “Indole or indazole derivative or salt thereof” (TAIHO PHARMACEUTICAL CO., LTD., priority 2011, dated 2015).
